Legend:
[1] = tested on: PfKRS1; details: cited from earlier work
[2] = target: PfKRS1 (Plasmodium falciparum, UniProt Q8IDJ8); assay: PfKRS1 mode of inhibition, pyrophosphate generation (EnzChek); assay type: biochemical; design: recombinant PfKRS1 (77–583 and 80–583); His (N); MBP (with TEV site) (N); made in house; host or cells: E. coli BL21 (DE3); codon-optimised gene from Genscript
Protocol: SUPPLEMENTARY INFORMATION glycerol pH 7.5/protease inhibitor tablets/DNAase) was added and the pellets for defrosted at room temperature for approximately 10 min. The slurry was then passed through a Cell Disrupter (Constant Systems) set at 30 KPSI to l yse the cel ls. The s ample w as t hen cent ri fug ed at 40, 000g for 2 0 mi n. The supernatant was then filtered using syringe filters to 0.45 µm. The s upernat ant w as l oaded ont o a 5 ml Hi Trap Ni HP col umn that had been eq ui l i brated wi th Buffer A (25 m M HEP ES /5 00 m M NaC l /2 0 mM Imi dazol e/2 mM DTT/10% Gl ycerol pH 7.5) at 5 ml /mi n usi ng an AKTA Pure system. Once l oaded the column was washed with 10 column volumes buffer A. A 5% step of Buf fer B (25 mM HEPES /50 0 mM NaC l /500 mM I mi daz ol e/2mM D TT/ 10% Glycerol pH 7.5) was then used to wash off His rich contami nati ng protei ns . […]
2.5 PfKR S1, CpKRS and HsKR S Pyr oph osphate Ge ne r ation EnzChe kTM Ki ne tic M e asur e me nts Steady-state kinetic measurements were conduc ted at room temperature using a PheraStar plate re a de r (BM G ). End-poi nt s fo r t he ami noacy l at i on react i on of PfKRS1, which produces inorganic py roph os phat e t hat i s conv ert ed t o t w o mol ecules of i norg ani c phos phat e us i ng a py rophos phat as e enzyme, were measured usi ng the EnzChek™ Pho sphate Assay Ki t, whi ch gives an absorbance read - out at 36 0 nm. […] The reaction was carried out for 6 h (PfKRS1 an d CpKRS) or 1 2 h (HsKRS) at ro om temperature and then the absorbance o f each wel l was read at 360 nm. The s ubs t rat es Km values were determined by varying the concentration of one of the substrates at saturati ng concentrati on of the othe r. […]
where V is the maximal velocity (here expressed as µM/min of phosphate production), S is the substrate concentration a nd K is the Michaelis constant for the substrate (Km). […]

[3] = target: T1, CYP2D6 (Homo sapiens, UniProt P10635); assay: Fluorescence-based CYP inhibition, CYP2D6; assay type: in vitro ADME
T1 construct: purchased Cypex, Dundee, UK; host or cells: bacterial membranes (bactosomes)
T1 sequence (P10635 whole entry): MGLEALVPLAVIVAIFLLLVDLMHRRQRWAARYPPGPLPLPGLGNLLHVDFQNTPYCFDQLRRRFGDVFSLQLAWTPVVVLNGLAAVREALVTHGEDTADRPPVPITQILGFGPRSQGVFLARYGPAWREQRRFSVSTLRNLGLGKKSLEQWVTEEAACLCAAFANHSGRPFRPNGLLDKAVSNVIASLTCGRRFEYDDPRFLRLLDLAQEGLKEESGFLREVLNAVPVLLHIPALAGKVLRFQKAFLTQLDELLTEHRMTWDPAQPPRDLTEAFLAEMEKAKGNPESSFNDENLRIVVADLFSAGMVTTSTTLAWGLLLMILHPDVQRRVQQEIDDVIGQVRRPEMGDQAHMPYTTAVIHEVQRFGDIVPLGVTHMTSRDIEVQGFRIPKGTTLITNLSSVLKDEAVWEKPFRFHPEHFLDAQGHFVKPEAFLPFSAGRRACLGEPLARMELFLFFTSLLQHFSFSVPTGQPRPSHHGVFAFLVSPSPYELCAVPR
Protocol: 4.7 F lu or e s ce nce-based CYP I nhibition usin g recombinantly expressed CYP b actosomes Fl uorogeni c C YP i nhi bi t i on s t udi es w ere c ondu ct ed at 37 °C i n 96-well, flat-bot t om, cl ear p ol y s t y rene pl at es. I ncubat i on mi xt ures cont ai ni ng Eas y C YP bact os omes (1000 pmol /ml , 10 mg /ml C y pex TM, Dundee, UK), fl uorogeni c substrate (Cypex TM) and 50 mM potas s i um phosphat e buffer (p H 7. 4) w er e prepared at t he fol l ow i ng fi nal concent rat i ons : C YP1A2, 5 pmol /ml + 35 µ M et hox y res orufi n (ER) ; CYP2C9, 10 pm ol/ml + 30 µM 7-methoxy-4-(tri fl uo romethy l )-coumari n (MFC ); C YP 2C 19, 5 pm ol /ml + 25 µM 3-cy ano-7-eth oxycoumarin (CEC); C YP 2D 6, 10 pmol /ml + 6 µM 7-meth oxy-4-(ami nomethy l )- coumari n (MAMC ); C YP 3A4, 10 pmol /ml + 1 µM diethoxyfluorescein (DEF) and 10 pmol /ml + 15 µM 7-benz y l ox y qui nol i ne (BQ ). […] 0125 ( 1A2 and 2C 9 onl y ) o r 0. 025 mg /ml (al l ot her i s oforms ). […] Positive control inhibitor, miconazole, was prepared as a 500 µM s olution in DMSO and similarly diluted.
For eac h i sofo rm, 2 20 µl of i ncubati on mi x was added to each wel l of a 96-well, flat-bot t om, cl ear pol y s t y rene pl at e. Al i quot s (5 µl) of each compound 5 conce ntrati on was then mi x ed wi th 220 µl of the incubation mix and pre-incubated at 37 °C for 5 min (final test compound concentration range: […]

Chain of PfKRS1 (Plasmodium falciparum, UniProt Q8IDJ8) (Q8IDJ8 entry or part of it): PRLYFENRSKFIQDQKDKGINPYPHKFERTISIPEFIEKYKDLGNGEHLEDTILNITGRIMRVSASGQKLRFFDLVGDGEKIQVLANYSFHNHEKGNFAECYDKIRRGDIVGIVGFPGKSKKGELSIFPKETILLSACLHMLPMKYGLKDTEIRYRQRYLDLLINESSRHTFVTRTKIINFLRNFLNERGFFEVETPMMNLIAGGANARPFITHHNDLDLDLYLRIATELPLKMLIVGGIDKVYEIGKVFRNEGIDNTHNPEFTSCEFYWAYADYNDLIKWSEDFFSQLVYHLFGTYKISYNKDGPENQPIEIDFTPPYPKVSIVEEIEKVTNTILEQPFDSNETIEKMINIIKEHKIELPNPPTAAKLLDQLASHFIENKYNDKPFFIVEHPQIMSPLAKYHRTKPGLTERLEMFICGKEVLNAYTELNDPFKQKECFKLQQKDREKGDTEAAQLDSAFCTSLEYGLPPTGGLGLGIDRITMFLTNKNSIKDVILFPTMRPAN

Structure (SMILES): C[C@H]1CCC[C@H](C[C@H]2Cc3cc(O)cc(O)c3C(=O)O2)O1 [Compound 1, cladosporin, reference compound]
- selectivity for cytosolic PfKRS1 compared with HsKRS [1]: > 100 fold

Structure (SMILES): O=C(NCC1(O)CCC(F)(F)CC1)c1cc(=O)c2cc(F)ccc2o1 [Compound 5]
- Ki, linear uncompetitive inhibition vs. L-lysine ([2]; EnzChek, saturating ATP): 0.212 µM
- Ki ([2]; EnzChek, saturating L-lysine, read-out: Ki, linear competitive inhibition vs. ATP): 0.032 µM
- IC50 ([2]; saturating concentrations of both substrates): 0.21 µM
- IC50 [3]: > 10 µM

Source: publication PMC6452685, “Lysyl-tRNA synthetase as a drug target in malaria and cryptosporidiosis” (Proceedings of the National Academy of Sciences of the …, 2019)
